Inconclusive results are not listed. Activity calls are given as the source filed them.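 Rule for the calls: active = compounds lowering the signal whose fitted AC50 is no more than twice their top tested dose; inconclusive = flat curve with activity from -70 to -30%, or bad fit; inactive = the rest.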 Some results are limits rather than exact numbers.

Tested on in one assay: not listed separately
The experiment in a line: enhancers of miR-122 activity, Renilla sensor – cell-based, psiCHECK-miR122, Huh7, dry powder, miR-122 modulator project, dose response (AID 743399). The conditions noted are these: Huh7 psiCHECK-miR122 Renilla luciferase reporter, 48 h; at 35 µM (top of the series). For orientation: A reporter such as luciferase makes a cellular process visible.
Consider `O=C(c1ccc(CN2CCOCC2)cc1)N1CCc2ccccc21`, for which the activity change, negative = miR122 activation is 15.4% (inactive). The same measure, in the same setting: with `O=C(Nc1ccc(-c2nc3ccccc3o2)cc1)c1cc(-n2cnnc2)ccc1Cl` the figure was 0% (inactive); with `COc1cccc(C(=O)Nc2ccc3c(c2)C(=O)N(C)C[C@@H](OC)[C@@H](C)CN[C@@H](C)CO3)c1`, 4.35% (inactive). The same measure, in the same setting: then `CN1C(=O)c2cc(NC(=O)c3cccc(F)c3)ccc2OC[C@@H]2O[C@@H](CC(=O)O)CC[C@@H]21`, with -10.9% (inactive). As for `CN1C(=O)c2cc(NC(=O)c3cccc(F)c3)ccc2OC[C@H]2O[C@@H](CC(=O)O)CC[C@H]21`, the activity change, negative = miR122 activation was 52.2% (inactive).

As for `Cn1c(=O)c(=O)n(C)c2cc(S(=O)(=O)N3CCOCC3)ccc21`, the activity change, negative = miR122 activation was 0% (inactive). The same measure, in the same setting: with `CN1C(=O)c2cc(NC(=O)c3cccc(F)c3)ccc2OC[C@@H]2O[C@H](CC(=O)O)CC[C@H]21` the figure was -41.3% (inactive); with `CCCCN(CCCC)C(=O)CN(C)S(=O)(=O)c1ccc2c(c1)n(C)c(=O)c(=O)n2C`, 46.2% (inactive); with `CCOC(=O)N1CCC(NC(=O)c2ccc3c(c2)sc2nc(-c4ccccc4)cn23)CC1`, -23.1% (inactive). Same read-out and setting: with `C[C@H]1CN([C@@H](C)CO)C(=O)c2cc(-c3ccc(C#N)cc3)cnc2O[C@H]1CN(C)Cc1cncnc1` the figure was -10.9% (inactive). Same read-out and setting: with `O=C(NCc1ccccc1Cl)c1ccc(CNc2c(NC3CCCCC3)c(=O)c2=O)cc1` the figure was -30.8% (inactive). As for `CO[C@@H]1CN(C)C(=O)c2cc(NC(=O)c3ccc4c(c3)OCO4)ccc2OC[C@H](C)NC[C@@H]1C`, the activity change, negative = miR122 activation was -21.7% (inactive). On the same count and under the same terms, then `CO[C@@H]1CN(C)C(=O)c2cc(NS(=O)(=O)c3ccc(Oc4ccccc4)cc3)ccc2OC[C@H](C)NC[C@@H]1C`, with 8.7% (inactive).

Turning to `O=S(=O)(NCCc1ccncc1)c1ccccc1`, the activity change, negative = miR122 activation is 515% (inactive). Same read-out and setting: with `Cc1cc(C(C)(C)C)cc(S(=O)(=O)N2CCOCC2)c1C` the figure was 92.3% (inactive). Regarding `CN1C(=O)c2cc(NC(=O)c3cccc(F)c3)ccc2OC[C@@H]2O[C@H](CC(=O)O)CC[C@@H]21`, the activity change, negative = miR122 activation is -15.2% (inactive).

On to `COCC(=O)N(C)C[C@@H]1Oc2ncc(-c3ccc(C#N)cc3)cc2C(=O)N([C@@H](C)CO)C[C@@H]1C`, for which the activity change, negative = miR122 activation was -4.35% (inactive). Still for that read-out and setting: then `CN1C(=O)c2cc(NC(=O)c3cccc(F)c3)ccc2OC[C@H]2O[C@H](CC(=O)O)CC[C@@H]21`, with -21.7% (inactive).

`C[C@H]1CN([C@@H](C)CO)C(=O)c2cc(-c3ccc(C#N)cc3)cnc2O[C@H]1CN(C)C(=O)c1ccccc1`: the activity change, negative = miR122 activation is 10.9% (inactive). Same read-out and setting: with `CN1C(=O)c2cc(NC(=O)c3cccc(F)c3)ccc2OC[C@H]2O[C@H](CC(=O)O)CC[C@H]21` the figure was -17.4% (inactive). The same measure, in the same setting: then `CN1C(=O)c2cc(NC(=O)c3cccc(F)c3)ccc2OC[C@H]2O[C@@H](CC(=O)O)CC[C@@H]21`, with 20.2% (inactive); and `O=C(CN=C1NS(=O)(=O)c2ccccc21)Nc1ccccc1N1CCCCCC1`, with -23.1% (inactive); and `CCOC(=O)N1CCC(NC(=O)c2ccc3nc(N4CCC(C)CC4)sc3c2)CC1`, with 53.8% (inactive). Same read-out and setting: then `C/C=C/c1cnc2c(c1)C(=O)N([C@@H](C)CO)C[C@H](C)[C@H](CN(C)S(=O)(=O)c1ccc(OC)cc1)O2`, with 26.1% (inactive).

For the next assay, the system named is Huh7 psiCHECK-miR122 Renilla luciferase reporter, 48 h. Described as above.
Conditions: not given
Turning to `C[C@H]1CN([C@@H](C)CO)S(=O)(=O)c2ccc(C#Cc3ccncc3)cc2O[C@H]1CN(C)C(=O)C1CCOCC1`, the AC50 was 20.7 µM. As to `C[C@@H]1CN([C@@H](C)CO)S(=O)(=O)c2ccc(C#Cc3ccncc3)cc2O[C@@H]1CN(C)C(=O)C1CCOCC1`, the AC50 was 0.838 µM. The same measure, in the same setting: with `CNC[C@@H]1Oc2cc(C#CC3CCCCC3)ccc2S(=O)(=O)N([C@@H](C)CO)C[C@@H]1C` the figure was 14.4 µM. For the compound `CO[C@@H]1CN(C)C(=O)c2cc(NC(=O)c3cccc(Oc4ccccc4)c3)ccc2OC[C@H](C)NC[C@@H]1C`, the AC50 is 7.62 µM.

Consider `C[C@@H]1CN([C@H](C)CO)S(=O)(=O)c2ccc(C#Cc3ccncc3)cc2O[C@H]1CN(C)C(=O)C1CCOCC1`, for which the AC50 is 0.496 µM. Same read-out and setting: with `Nc1ccc(Oc2ccc(Cl)cc2)cc1` the figure was 3.4 µM; with `C[C@@H]1CN([C@H](C)CO)S(=O)(=O)c2ccc(C#Cc3ccncc3)cc2O[C@@H]1CN(C)C(=O)C1CCOCC1`, 0.896 µM. Consider `COCC(=O)N(C)C[C@H]1Oc2cc(-c3ccccc3F)ccc2S(=O)(=O)N([C@H](C)CO)C[C@H]1C`, for which the AC50 is less than 0.26 µM.

Take `C[C@H](CO)N1C[C@H](C)[C@@H](CN(C)C(=O)C2CCOCC2)Oc2cc(C#Cc3ccncc3)ccc2S1(=O)=O`: the AC50 is 5.46 µM. The same measure, in the same setting: then `COc1cccc(-c2ccc3c(c2)O[C@H](CN(C)C(=O)C2CCOCC2)[C@H](C)CN([C@@H](C)CO)S3(=O)=O)c1`, with 4.07 µM. Still for that read-out and setting: with `C[C@H]1CN([C@@H](C)CO)C(=O)c2cc(-c3ccc(C#N)cc3)cnc2O[C@H]1CN(C)C(=O)Nc1ccc(C(F)(F)F)cc1` the figure was 6.96 µM; with `CCn1cc(C(=O)O)c(=O)c2cc(F)c(N3CCNCC3)nc21`, > 70 µM (inactive); with `COCC(=O)N(C)C[C@H]1Oc2cc(-c3ccccc3F)ccc2S(=O)(=O)N([C@@H](C)CO)C[C@H]1C`, 0.278 µM. Same read-out and setting: then `Nc1ccc(Oc2ccc(Br)cc2)cc1`, with 1.09 µM. Turning to `O=C(c1ccc(CNc2c(NC3CCCCC3)c(=O)c2=O)cc1)N1CCc2ccccc21`, the AC50 was 1.18 µM. Still for that read-out and setting: then `COCC(=O)N(C)C[C@H]1Oc2cc(C#Cc3cccnc3)ccc2S(=O)(=O)N([C@@H](C)CO)C[C@H]1C`, with 0.354 µM; and `C[C@@H]1CN([C@H](C)CO)S(=O)(=O)c2ccc(/C=C/c3ccccc3)cc2O[C@@H]1CN(C)C(=O)c1cccnc1`, with 7.29 µM; and `COCC(=O)N(C)C[C@H]1Oc2cc(-c3ccc(C#N)cc3)ccc2S(=O)(=O)N([C@H](C)CO)C[C@H]1C`, with 0.324 µM. With `COc1ccc(S(=O)(=O)N(C)C[C@@H]2Oc3ncc(/C=C/c4ccccc4)cc3C(=O)N([C@@H](C)CO)C[C@@H]2C)cc1`, the AC50 was 22.1 µM. The same measure, in the same setting: then `OCc1ccc(-c2nn(Cc3ccccc3)c3ccccc23)o1`, with 0.449 µM; and `CN1C(=O)c2cc(NC(=O)c3cccc(F)c3)ccc2OC[C@@H]2O[C@@H](CC(=O)O)CC[C@H]21`, with > 60 µM (inactive). `CCCC#Cc1ccc2c(c1)O[C@H](CN(C)C(=O)COC)[C@H](C)CN([C@@H](C)CO)S2(=O)=O`: the AC50 is 1.1 µM.

With `O=C(CNCCC1=CCCCC1)Nc1ccccc1N1CCCCCC1`, the AC50 is 16.3 µM.

For `CCCC#Cc1ccc2c(c1)O[C@H](CN(C)C(=O)c1ccncc1)[C@H](C)CN([C@@H](C)CO)S2(=O)=O`, the AC50 was 12.8 µM. The same measure, in the same setting: with `Cc1cc(C(C)(C)C)cc(S(=O)(=O)NCCc2ccncc2)c1C` the figure was 2.34 µM.

As for `Cc1cccc(NC(=O)Nc2ccc3c(c2)C(=O)N(C)[C@@H]2CC[C@H](CC(=O)NCc4ccccc4Cl)O[C@H]2CO3)c1`, the AC50 is 22.2 µM. The same measure, in the same setting: with `C[C@H]1CN([C@@H](C)CO)C(=O)c2cc(C#Cc3ccccc3F)cnc2O[C@H]1CN(C)C(=O)C1CCCCC1` the figure was 20.6 µM; with `C[C@H]1CN([C@@H](C)CO)S(=O)(=O)c2ccc(C#Cc3ccncc3)cc2O[C@@H]1CN(C)C(=O)C1CCOCC1`, 9.44 µM.

In the case of `COCC(=O)N(C)C[C@H]1Oc2cc(C#Cc3cccnc3)ccc2S(=O)(=O)N([C@H](C)CO)C[C@H]1C`, the AC50 is less than 0.26 µM. Same read-out and setting: with `CN(C)CCN1C(=O)c2cccc3cc(N)cc(c23)C1=O` the figure was 10.7 µM; with `COCC(=O)N(C)C[C@H]1Oc2cc(-c3ccc(C#N)cc3)ccc2S(=O)(=O)N([C@@H](C)CO)C[C@H]1C`, 0.341 µM.

What is called AC50 is the concentration at which the activity in the assay is half-maximal.

The values are drawn from PubChem BioAssay AID743399 (Broad Institute, 2014).
